Experiments:
ES2 [1] = assay: CellTiter-Glo viability assay, ES2; assay type: cell-based, human; conditions: for IC50: Homo sapiens, ES-2, ES2, read-out: IC50 cellular viability (CellTiter-Glo)
Experimental: (§1) CellTiter-Glo (CTG) viability assays were performed per the manufacturer's instructions. Briefly, 5,000-10,000 cells were seeded per well in a 96 well plate then treated with either DMSO or EGLN1 inhibitor in doses indicated. […] Data presented are the average of three technical replicates.

HIF1A = assay: Immunoblot of HIF1A levels after inhibitor treatment; assay type: cell-based, human
HIF1A activity = assay: Hypoxia Response Element (HRE) luciferase reporter; assay type: cell-based, human; conditions: 48 hours post-treatment, increasing dose
Experimental: The Hypoxia Response Element (HRE) was designed based on previous publications (18, 19) and was cloned with a luciferase reporter. The construct was then stably transfected to EGLN1 dependent and independent cell lines. Following transfection cells were treated with EGLN1 inhibitor for up to 6 days and luciferase activity was measured as a readout of HIF1A activity.

TOV112D [2] = assay: CellTiter-Glo viability assay, TOV112D; assay type: cell-based, human; conditions: 48 hours, increasing dose
Experimental: as §1, with “replicates. Data are representative of three independent experiments.” for “replicates.”

EGLN1-dependent cells = assay: CellTiter-Glo viability assay over 5 days; assay type: cell-based, human; conditions: treated over 5 days
Experimental: CellTiter-Glo (CTG) viability assays were performed per the manufacturer's instructions. Briefly, 5,000-10,000 cells were seeded per well in a 96 well plate then treated with either DMSO or EGLN1 inhibitor in doses indicated. Following 3-6 days treatment (retreated at day 4) CTG compound was added and viability was measured. Data presented are the average of three technical replicates.

ES2 [3] = assay: CFSE proliferation by flow cytometry, ES2; assay type: cell-based, human; conditions: ES2, increasing concentration, 48 hours
Experimental: (§2) Flow cytometry was performed at the Broad Institute Flow Cytometry core using CFSE (5(6)-Carboxyfluorescein N-hydroxysuccinimidyl ester)—Cell Labeling Kit (Abcam ab113853) to label dividing cells with CFSE and analyzed on FL-1 Excitation(max) 492 nm, Emission(max) 517 nm. Apoptosis was detected using PE Annexin V Apoptosis Detection Kit 1 (BD Biosciences 559763). Dual labeling Annexin V with 7-Amino-Actinomycin (7-AAD) allowed quantification of apoptosis. Data are presented as the average of two technical replicates and are representative of three independent experiments. Data were analyzed using FlowJo data analysis.

TOV112D [4] = assay: CFSE proliferation by flow cytometry, TOV112D; assay type: cell-based, human; conditions: increasing concentration, 48 hours
Experimental: as §2

ES2 [5] = assay: Annexin V apoptosis by flow cytometry, ES2; assay type: cell-based, human; conditions: ES2, 40 μM, 48 hours
Experimental: as §2, with “Apoptosis was detected using PE Annexin V Apoptosis Detection Kit 1 (BD Biosciences 559763).” left out

OVISE [6] = assay: Annexin V apoptosis by flow cytometry, OVISE; assay type: cell-based, human; conditions: 40 μM, 48 hours
Experimental: as §2, with “Apoptosis was detected using PE Annexin V Apoptosis Detection Kit 1 (BD Biosciences 559763).” left out

TOV112D [7] = assay: Annexin V apoptosis by flow cytometry, TOV112D; assay type: cell-based, human; conditions: 40 μM, 48 hours
Experimental: as §2, with “Apoptosis was detected using PE Annexin V Apoptosis Detection Kit 1 (BD Biosciences 559763).” left out

OVCAR4 = assay: Annexin V apoptosis by flow cytometry, OVCAR4; assay type: cell-based, human; conditions: OVCAR4, 40 μM, 48 hours
Experimental: as §2, with “Apoptosis was detected using PE Annexin V Apoptosis Detection Kit 1 (BD Biosciences 559763).” left out

ES2 [8] = assay: Long term proliferation assay, ES2; assay type: cell-based, human; conditions: for proliferation: ES2 control sgRNA cells; for long term proliferation: ES2
Text: (§8) Data presented are the average of three technical replicate wells when available, excluding wells where there were no live cells to passage. Data are representative of two independent experiments.

OVISE [9] = assay: Long term proliferation assay, OVISE; assay type: cell-based, human; conditions: for long term proliferation: OVISE, dose-dependent
Text: as §8

JHOC5 = assay: Long term proliferation assay, JHOC5; assay type: cell-based, human; conditions: JHOC5, dose-dependent
Text: (§3) Data are representative of two independent experiments.

TOV21G = assay: Long term proliferation assay, TOV21G; assay type: cell-based, human; conditions: dose-dependent
Text: as §3

[10] = system: sensitive cell lines (EGLN1-dependent); conditions: up to 30 days, p<0.01
Experimental: Non-Cas9 expressing cells were plated on a 12 well or 6 well plate in triplicate with varying concentrations of FG-4592. Every 3-4 days cells were trypsinized, counted using Nexcelom Cellometer, and reseeded at equal densities with the same concentrations of FG-4592, IOX2, BAY85-3934 or VH298. Data presented are the average of three technical replicate wells when available, excluding wells where there were no live cells to passage.

[11] = system: EGLN1-dependent cell lines; assay: Colony formation assay, EGLN1-dependent cell lines; assay type: cell-based, human
Text: (§9) Media and drug were refreshed every 3-4 days for 10 days. Cells were fixed on the plate with 10% neutral buffered formalin (Thermo Fisher Scientific) and stained with 0.1% crystal violet in 10% ethanol. After plates were washed and dried, dye was extracted using 10% acetic acid. Absorbance of extracted dye samples at 595 nm was quantified using a Molecular Devices SpectraMax M5 Plate Reader. […] Data are representative of three independent experiments.

[12] = system: not EGLN1-dependent cell lines; assay: Colony formation assay, not EGLN1-dependent cell lines; assay type: cell-based, human
Text: as §9

TOV112D [13] = assay: Colony formation assay in hypoxia, TOV112D; assay type: cell-based, human; conditions: 5% oxygen
Text: Data are representative of three independent experiments.

ES2 HIF1A knockout = assay: Proliferation assay, ES2 HIF1A knockout cells; assay type: cell-based, human
Text: as §8

OVISE HIF1A knockout = assay: Proliferation assay, OVISE HIF1A knockout cells; assay type: cell-based, human; conditions: 10 uM and 20 uM
Text: as §3
However, such depletion of HIF1A rescued EGLN1-sensitivity to FG-4592 in ES2 (FIG. 5C) and OVISE (FIG. 5D) (p<0.05) cell lines.

tumors formed from ES2 = assay: Microdevice delivery into ES2 tumors, immunohistochemistry; assay type: in vivo, mice; conditions: ES2 (HIF1A WT) tumors, local microdevice delivery, 48 hours
Experimental: (§4) Female Athymic^Nu/Nu mice (8-10 weeks old) were used, were obtained from Jackson Laboratories and had access to food and water in appropriate housing conditions. All animal procedures performed at the Broad Institute were approved by the Institutional Animal Care and Use Committee (IACUC) and according to institutional regulations.
(§5) Devices were manufactured as previously described (42). Briefly, microscale devices at diameter […] and length 3 mm were manufactured and pure powder compounds were formulated in 50% PEG. Mice were subcutaneously delivered ovarian cancer cells and tumors were allowed to grow to 1 cm^2. Mice were anesthetized during implantation using 1% isoflurane. A 19-guage spinal biopsy needle (Angiotech) was inserted into the tumor and served as the location for the device to be implanted.
(§6) Immunohistochemistry was performed on 4 μm serial sections from formalin-fixed, paraffin-embedded (FFPE) tumor tissues. The samples were deparaffinized, rehydrated, and pretreated for antigen retrieval by microwave treatment. Immunostaining was done using cell proliferation marker Ki67 and cleaved caspase 3 (CCE) at the Koch Institute Microscopy Core Facility.
(§7) By inserting this microdevice directly into the tumor, the effect of FG-4592, Bay 85-3934 and VH298 in tumors was assessed in vivo. Specifically, ES2 cells were implanted with intact HIF1A (ES2) or HIF1A knockout (ES2 HIF1A KO) in immunodeficient mice and the tumors were allowed to grow to 1 cm^2 before implanting a microdevice containing the EGLN1 inhibitor FG-4592 and VHL inhibitor VH298. Following implantation, the tumors were collected after 48 hours and the tumors were sectioned and stained for proliferation with an antibody against Ki-67, a cellular marker for proliferating cells or Cleaved Caspase-3, a cellular marker for apoptosis.

[14] = system: tumors formed from ES2 with HIF1A KO; assay: Microdevice delivery into ES2 HIF1A KO tumors, immunohistochemistry; assay type: in vivo, mice; conditions: local microdevice delivery, 48 hours
Experimental: as §4, §5, §6, §7

[15] = system: EGLN1-dependent cell lines OVTOKO, OVISE and ES2; conditions: hypoxia (5% oxygen) and normoxia
Experimental: Cells were plated at a low density (250-1000 cells/well) with varying concentrations of FG-4592 (Selleck) on 24 well plates. Media and drug were refreshed every 3-4 days for 10 days. Cells were fixed on the plate with 10% neutral buffered formalin (Thermo Fisher Scientific) and stained with 0.1% crystal violet in 10% ethanol. After plates were washed and dried, dye was extracted using 10% acetic acid. Absorbance of extracted dye samples at 595 nm was quantified using a Molecular Devices SpectraMax M5 Plate Reader. […] Data are representative of three independent experiments.
To test this hypothesis, colony-forming formation assays were performed in the context of normal culture conditions (normoxia) or in a hypoxic incubator at 5% oxygen (hypoxia).

OVTOKO = assay: Long term proliferation assay, OVTOKO; assay type: cell-based, human; conditions: dose-dependent
Text: as §3

TOV112D [16] = assay: Long term proliferation assay, TOV112D; assay type: cell-based, human
Text: as §3

SMILES: O=C(O)CNC(=O)c1nc(Cl)c2ccccc2c1O [FG-2216]
- sensitivity of ES2 to EGLN1 inhibitors (viability) (ES2 [1]; ES2, FIG. 11D): showed sensitivity

SMILES: Cc1nc(C(=O)NCC(=O)O)c(O)c2ccc(Oc3ccccc3)cc12 [FG-4592]
- HIF1A levels (immunoblot) (HIF1A; ES2 cells): increased HIF1A levels in a dose-dependent manner
- HIF1A levels (immunoblot) (HIF1A; TOV112D cells): increased HIF1A levels in a dose-dependent manner
- HIF1A activity (HRE luciferase reporter) (HIF1A activity): increased in both EGLN1-dependent cell lines and cell lines not dependent on EGLN1
- cell viability (CellTiter-Glo) (ES2 [1]; ES2, 48 hours, increasing dose): reduced viability
- IC50 (ES2 [1]): 40 to 50 µM
- cell viability (CellTiter-Glo) (TOV112D [2]): no effect
- viability (CTG) (EGLN1-dependent cells): reduced viability in a dose-dependent manner
- cell proliferation (CFSE stain, flow cytometry) (ES2 [3]): reduced cell proliferation
- cell proliferation (CFSE stain, flow cytometry) (TOV112D [4]): did not reduce cell proliferation
- apoptosis (Annexin V stain) (ES2 [5]): increased apoptosis
- apoptosis (Annexin V stain) (OVISE [6]): increased apoptosis
- apoptosis (Annexin V stain) (TOV112D [7]): not increasing apoptosis
- apoptosis (Annexin V stain) (OVCAR4): not increasing apoptosis
- proliferation (ES2 [8]; 10 uM and 20 uM): reduced proliferation of control cells
- proliferation (OVISE [9]; OVISE control sgRNA cells, 10 uM and 20 uM): reduced proliferation of control cells
- long term proliferation (JHOC5): reduced long term proliferation
- long term proliferation (TOV21G): reduced the long term proliferation
- long term proliferation [10]: significantly reduced long term proliferation
- colony formation [11]: reduced colony formation
- colony formation [12]: no effect
- colony formation, sensitivity to inhibitor (TOV112D [13]): Increased sensitivity to EGLN1 inhibition was not observed
- proliferation (ES2 HIF1A knockout; 10 uM and 20 uM): resistant to EGLN1 inhibition
- proliferation (OVISE HIF1A knockout): resistant to EGLN1 inhibition
- tumor cell apoptosis (Cleaved Caspase-3 immunostaining) (tumors formed from ES2): increased apoptosis
- tumor cell proliferation (Ki-67 immunostaining) (tumors formed from ES2): dramatic reduction in proliferating cells
- tumor cell apoptosis (Cleaved Caspase-3 immunostaining) [14]: no change
- tumor cell proliferation (Ki-67 immunostaining) [14]: no change
- colony formation, sensitivity to inhibitor [15]: sensitive

SMILES: O=C(O)CNC(=O)c1c(O)c2ccccc2n(Cc2ccccc2)c1=O [IOX2]
- viability (CTG) (EGLN1-dependent cells): reduced viability in a dose-dependent manner
- long term proliferation (ES2 [8]): reduced long term proliferation
- long term proliferation (OVISE [9]): reduced long term proliferation
- long term proliferation (OVTOKO): reduced long term proliferation
- colony formation [11]: reduced colony formation
- colony formation [12]: no effect

SMILES: O=c1c(-n2ccnn2)c[nH]n1-c1cc(N2CCOCC2)ncn1 [Molidustat]
- HIF1A levels (immunoblot) (HIF1A; ES2 cells): increased HIF1A levels in a dose-dependent manner
- HIF1A levels (immunoblot) (HIF1A; TOV112D cells): increased HIF1A levels in a dose-dependent manner
- IC50 (ES2 [1]): 40 to 50 µM

SMILES: Cc1ncsc1-c1ccc(CNC(=O)[C@@H]2C[C@@H](O)CN2C(=O)[C@@H](NC(=O)C2(C#N)CC2)C(C)(C)C)cc1 [VH298]
- HIF1A levels (immunoblot) (HIF1A; ES2 cells): increased HIF1A levels in a dose-dependent manner
- long term proliferation (ES2 [8]): substantially decreased cell proliferation
- proliferation (ES2 [8]; 100 uM): significantly reduced proliferation of control cells
- long term proliferation (OVISE [9]): reduced long term proliferation
- long term proliferation (OVTOKO): reduced long term proliferation
- proliferation (TOV112D [16]): slightly decreased proliferation
- proliferation (ES2 HIF1A knockout; 100 uM): resistant to VHL1 inhibition
- tumor cell apoptosis (Cleaved Caspase-3 immunostaining) (tumors formed from ES2): increased apoptosis
- tumor cell proliferation (Ki-67 immunostaining) (tumors formed from ES2): reduction of proliferating cells
- tumor cell apoptosis (Cleaved Caspase-3 immunostaining) [14]: dependent on intact HIF1A
- tumor cell proliferation (Ki-67 immunostaining) [14]: dependent on intact HIF1A

SMILES: COc1cccc2c1C(=O)c1c(O)c3c(c(O)c1C2=O)C[C@@](O)(C(=O)CO)C[C@@H]3O[C@H]1C[C@H](N)[C@H](O)[C@H](C)O1 [doxorubicin]
- tumor cell apoptosis (Cleaved Caspase-3 immunostaining) (tumors formed from ES2): increased apoptosis
- tumor cell proliferation (Ki-67 immunostaining) (tumors formed from ES2): reduced proliferation
- tumor cell apoptosis (Cleaved Caspase-3 immunostaining) [14]: increased apoptosis
- tumor cell proliferation (Ki-67 immunostaining) [14]: reduced proliferation

Reference: US20220090083A1, “TARGETING EGLN1 IN CANCER” (THE BROAD INSTITUTE, INC., priority 2018, published 2022)
